Test results reported in patent US12209075B2, “Pyridine-sulfonamide derivatives as sodium channel inhibitors” (GENENTECH, INC., priority 2018, dated 2025).
Where a name gives a salt, the structure may show the parent alone.

What follows are molecules tested against hNav1.7 (Homo sapiens (Human), UniProt Q15858) (assay: Tritiated compound binding to membranes from cells expressing hNav1.7 and the β1 subunit (Nav1.7 LBA EVO)). Conditions: competitive binding vs [3H]compound, membranes with hNav1.7 and β1 subunit.
Protocol: Example 64a. Tritiated Compound Binding to Membranes Isolated from Cells that Heterologously Express hNav1.7 and the β1 Subunit
Preparation of membranes containing recombinantly expressed sodium channels: Frozen recombinant cell pellets are thawed on ice and diluted to 4 times the cell pellet weight with ice cold 50 mM Tris HCl, pH 7.4 buffer. The cell suspensions are homogenized on ice using a motorized glass dounce homogeniser. Homogenates are further diluted 8.4 times with ice cold 50 mM Tris HCl, pH 7.4 buffer and then centrifuged at 200×g at 4° C. for 15 minutes. The supernatants are collected and centrifuged at 10000×g at 4° C. for 50 min. The pellets are then re-suspended in 100 mM NaCl, 20 mM Tris HCl, pH 7.4 buffer containing 1% v/v protease inhibitors (Calbiochem) and re-homogenized on ice. The homogenized membranes are then processed through a syringe equipped with a 26 gauge needle. Protein concentrations arer determined by Bradford Assay and the membranes are stored at −80° C.
Radioligand Binding Studies: Saturation experiments. A competitive NaV1.7 inhibitor having a methyl group is tritiated. Three tritiums are incorporated in place of methyl hydrogens to generate [^3H]compound. Binding of this radioligand is performed in 5 mL borosilicate glass test tubes at room temperature. Binding is initiated by adding membranes to increasing concentrations of [^3H]compound in 100 mM NaCl, 20 mM Tris HCl, pH 7.4 buffer containing 0.01% w/v bovine serum albumin (BSA) for 18 h. Non-specific binding is determined in the presence of 1 μM unlabeled compound. After 18 h, the reactants are filtered through GF/C glass fiber filters presoaked in 0.5% w/v polyethylene imine. Filters are washed with 15 mL ice cold 100 mM NaCl, 20 mM Tris HCl, pH7.4 buffer containing 0.25% BSA to separate bound from free ligand. [^3H]compound bound to filters is quantified by liquid scintillation counting.
Competitive binding experiments: Binding reactions are performed in 96-well polypropylene plates at room temperature for 18 h. In 360 μL, membranes are incubated with 100 pM [^3H]compound and increasing concentrations of Test Compound. Non-specific binding is defined in the presence of 1 μM unlabeled compound. Reactions are transferred and filtered through 96-well glass fiber/C filter plates presoaked with 0.5% polyethylene imine. The filtered reactions are washed 5 times with 200 μL ice cold buffer containing 0.25% BSA. Bound radioactivity is determined by liquid scintillation counting.
Data Analysis: For saturation experiments, non-specific binding is subtracted from total binding to provide specific binding and these values are recalculated in terms of pmol ligand bound per mg protein. Saturation curves are constructed and dissociation constants are calculated using the single site ligand binding model: Beq=(Bmax*X)/(X+Kd), where Beq is the amount of ligand bound at equilibrium, Bmax is the maximum receptor density, Kd is the dissociation constant for the ligand, and X is the free ligand concentration. For competition studies percent inhibition is determined and IC50 values are calculated using a 4 parameter logistic model (% inhibition=(A+((B−A)/(1+((x/C)^D)))) using XLfit, where A and B are the maximal and minimum inhibition respectively, C is the IC50 concentration and D is the (Hill) slope.
Example 64b. Tritiated Compound Binding to Membranes Isolated from Cells that Heterologous Express hNav1.7 and the β1 Subunit
Preparation of membranes containing recombinantly expressed sodium channels: Following the procedure described in 31a, and making modifications as required to: centrifuge supernatants at 100000×g instead of 10000×g; re-suspend pellets in a buffer containing 0.01% BSA in addition to 100 mM NaCl, 20 mM Tris HCl, pH 7.4 buffer, and 1% v/v […]; and storing membranes at −80° C. in single use aliquots instead of pooled. […]

hNav1.7, sequence (Q15858 whole entry, looked up): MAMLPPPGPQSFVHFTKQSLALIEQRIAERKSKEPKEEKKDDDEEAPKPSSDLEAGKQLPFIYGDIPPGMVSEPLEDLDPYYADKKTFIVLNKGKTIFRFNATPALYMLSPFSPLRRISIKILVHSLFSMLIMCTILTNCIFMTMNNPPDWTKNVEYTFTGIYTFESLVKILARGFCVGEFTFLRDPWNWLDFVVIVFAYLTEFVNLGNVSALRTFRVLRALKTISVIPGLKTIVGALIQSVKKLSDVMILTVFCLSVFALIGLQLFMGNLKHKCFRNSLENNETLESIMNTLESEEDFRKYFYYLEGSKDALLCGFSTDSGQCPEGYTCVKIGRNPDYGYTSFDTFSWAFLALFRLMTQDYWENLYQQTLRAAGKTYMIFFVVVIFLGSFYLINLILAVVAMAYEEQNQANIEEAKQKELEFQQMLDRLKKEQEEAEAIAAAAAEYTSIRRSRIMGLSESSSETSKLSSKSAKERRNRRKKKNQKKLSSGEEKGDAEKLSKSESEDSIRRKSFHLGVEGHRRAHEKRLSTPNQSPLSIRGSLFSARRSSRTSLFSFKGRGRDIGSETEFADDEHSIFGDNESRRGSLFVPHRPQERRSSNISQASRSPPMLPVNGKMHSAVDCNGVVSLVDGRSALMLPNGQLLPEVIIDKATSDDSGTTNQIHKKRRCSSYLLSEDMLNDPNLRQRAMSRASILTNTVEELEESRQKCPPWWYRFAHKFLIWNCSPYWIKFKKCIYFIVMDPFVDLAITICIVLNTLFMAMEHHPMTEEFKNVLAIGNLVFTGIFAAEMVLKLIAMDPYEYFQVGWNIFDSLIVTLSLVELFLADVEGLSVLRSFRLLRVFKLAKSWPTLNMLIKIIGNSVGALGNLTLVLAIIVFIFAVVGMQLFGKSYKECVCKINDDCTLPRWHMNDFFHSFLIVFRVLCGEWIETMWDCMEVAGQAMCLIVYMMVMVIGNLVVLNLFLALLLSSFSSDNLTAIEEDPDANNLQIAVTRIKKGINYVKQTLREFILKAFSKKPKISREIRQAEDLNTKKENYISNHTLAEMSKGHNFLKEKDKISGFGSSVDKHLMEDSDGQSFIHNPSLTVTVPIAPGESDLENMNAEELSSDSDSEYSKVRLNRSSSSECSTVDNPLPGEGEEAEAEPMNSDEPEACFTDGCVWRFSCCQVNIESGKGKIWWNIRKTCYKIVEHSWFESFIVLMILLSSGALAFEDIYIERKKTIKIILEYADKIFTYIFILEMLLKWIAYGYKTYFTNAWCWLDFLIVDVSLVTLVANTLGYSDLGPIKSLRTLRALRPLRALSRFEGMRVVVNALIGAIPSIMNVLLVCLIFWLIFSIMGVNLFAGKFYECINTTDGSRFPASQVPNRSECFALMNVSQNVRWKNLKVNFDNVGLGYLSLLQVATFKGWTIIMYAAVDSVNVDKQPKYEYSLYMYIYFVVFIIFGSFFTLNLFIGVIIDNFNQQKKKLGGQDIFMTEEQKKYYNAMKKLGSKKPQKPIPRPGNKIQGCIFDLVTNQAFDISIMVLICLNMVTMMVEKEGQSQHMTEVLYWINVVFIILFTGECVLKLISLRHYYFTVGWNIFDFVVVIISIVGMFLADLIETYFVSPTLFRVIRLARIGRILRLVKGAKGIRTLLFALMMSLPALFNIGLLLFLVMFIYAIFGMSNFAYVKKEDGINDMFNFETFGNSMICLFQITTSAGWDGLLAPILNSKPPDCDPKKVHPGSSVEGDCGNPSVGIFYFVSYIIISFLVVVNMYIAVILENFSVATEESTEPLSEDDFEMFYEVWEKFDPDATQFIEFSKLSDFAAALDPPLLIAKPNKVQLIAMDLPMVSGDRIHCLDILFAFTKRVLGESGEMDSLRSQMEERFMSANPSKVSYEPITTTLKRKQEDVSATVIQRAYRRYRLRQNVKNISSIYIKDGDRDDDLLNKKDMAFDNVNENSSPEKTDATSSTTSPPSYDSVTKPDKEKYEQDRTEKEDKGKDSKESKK
hNav1.7, sequence (Q07699 whole entry partner, looked up): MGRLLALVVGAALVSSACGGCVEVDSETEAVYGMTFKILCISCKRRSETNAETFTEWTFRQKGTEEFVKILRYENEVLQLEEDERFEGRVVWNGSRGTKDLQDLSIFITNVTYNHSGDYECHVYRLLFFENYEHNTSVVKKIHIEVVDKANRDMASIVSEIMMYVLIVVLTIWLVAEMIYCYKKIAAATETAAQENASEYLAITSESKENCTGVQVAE

Structure (SMILES)	IC50
O=S(=O)(Nc1ccncn1)c1cnc(O[C@H]2CC[C@H](c3cccc(C(F)(F)F)n3)C[C@@H]2N2CCCC2)c(Cl)c1 [Example 40, 5-chloro-N-(pyrimidin-4-yl)-6-(((1S,2S,4S)-2-(pyrrolidin-1-yl)-4-(6-(trifluoromethyl)pyridin-2-yl)cyclohexyl)oxy)pyridine-3-sulfonamide]	0.955 nM
CN(C)[C@H]1C[C@@H](c2cccc(C(F)(F)F)c2)CC[C@@H]1Oc1ncc(S(=O)(=O)Nc2ccncn2)cc1F [Example 21, 6-(((1S,2S,4S)-2-(Dimethylamino)-4-(3-(trifluoromethyl)phenyl)cyclohexyl)oxy)-5-fluoro-N-(pyrimidin-4-yl)pyridine-3-sulfonamide]	9.17 nM
Cc1nc(O[C@H]2CC[C@H](c3cccc(OC(F)(F)F)c3)C[C@@H]2N2CCCC2)ccc1S(=O)(=O)Nc1ccncn1 [Example 30, 2-Methyl-N-(pyrimidin-4-yl)-6-(((1S,2S,4S)-2-(pyrrolidin-1-yl)-4-(3-(trifluoromethoxy)phenyl)-cyclohexyl)oxy)pyridine-3-sulfonamide]	16.6 nM
CN(C)[C@H]1C[C@@H](c2cc(C(F)(F)F)ccc2F)CC[C@@H]1Oc1ccc(S(=O)(=O)Nc2ccncn2)c(Cl)n1 [Example 44, 2-Chloro-6-(((1S,2S,4S)-2-(dimethylamino)-4-(2-fluoro-5-(trifluoromethyl)phenyl)-cyclohexyl)oxy)-N-(pyrimidin-4-yl)pyridine-3-sulfonamide formate]	0.72 nM
O=S(=O)(Nc1ccncn1)c1cnc(O[C@H]2CC[C@H](c3cccc(C(F)(F)F)c3)C[C@@H]2N2CCCC2)c(Cl)c1 [Example 18, 5-chloro-N-(pyrimidin-4-yl)-6-(((1S,2S,4S)-2-(pyrrolidin-1-yl)-4-(3-(trifluoromethyl)phenyl)-cyclohexyl)oxy)pyridine-3-sulfonamide]	0.95 nM
Cc1nc(O[C@H]2CC[C@H](c3cccc(C(F)(F)F)c3)C[C@@H]2N(C)C)ccc1S(=O)(=O)Nc1ccncn1 [Example 23, 6-(((1S,2S,4S)-2-(Dimethylamino)-4-(3-(trifluoromethyl)phenyl)cyclohexyl)oxy)-2-methyl-N-(pyrimidin-4-yl)pyridine-3-sulfonamide formate]	8.3 nM
Cc1ccc([C@H]2CC[C@H](Oc3ccc(S(=O)(=O)Nc4ccncn4)c(C)n3)[C@@H](N(C)C)C2)cc1C(F)(F)F [Example 56, 6-(((1S,2S,4S)-2-(dimethylamino)-4-(4-methyl-3-(trifluoromethyl)phenyl)cyclohexyl)oxy)-2-methyl-N-(pyrimidin-4-yl)pyridine-3-sulfonamide formate]	1.32 nM
CN(C)[C@H]1C[C@@H](c2cccc(C(F)(F)F)c2)CC[C@@H]1Oc1ncc(S(=O)(=O)Nc2ccncn2)cc1Br [Example 20, 5-bromo-6-(((1S,2S,4S)-2-(dimethylamino)-4-(3-(trifluoromethyl)phenyl)cyclohexyl)oxy)-N-(pyrimidin-4-yl)pyridine-3-sulfonamide formate]	28.2 nM
CN(C)[C@H]1C[C@@H](c2cccc(SC(F)(F)F)c2)CC[C@@H]1Oc1ccc(S(=O)(=O)Nc2ccncn2)cn1 [Example 63, 6-(((1S,2S,4S)-2-(Dimethylamino)-4-(3-((trifluoromethyl)thio)phenyl)cyclohexyl)oxy)-N-(pyrimidin-4-yl)pyridine-3-sulfonamide]	0.635 nM
CN(C)[C@H]1C[C@@H](c2cccc(C(F)(F)F)c2)CC[C@@H]1Oc1ccc(S(=O)(=O)Nc2ccncn2)cn1 [Example 1, 6-(((1S,2S,4S)-2-(Dimethylamino)-4-(3-(trifluoromethyl)phenyl)cyclohexyl)oxy)-N-(pyrimidin-4-yl)pyridine-3-sulfonamide]	28.2 nM
CN(C)[C@H]1C[C@@H](c2cccc(C(F)(F)F)c2)CC[C@@H]1Oc1cc(Cl)c(S(=O)(=O)Nc2ccncn2)cn1 [Example 31, 4-Chloro-6-(((1S,2S,4S)-2-(dimethylamino)-4-(3-(trifluoromethyl)phenyl)cyclohexyl)oxy)-N-(pyrimidin-4-yl)pyridine-3-sulfonamide]	1.89 nM
Cc1cc(S(=O)(=O)Nc2ccncn2)cnc1O[C@H]1CC[C@H](c2cccc(C(F)(F)F)c2)C[C@@H]1N(C)C [Example 15, 6-(((1S,2S,4S)-2-(Dimethylamino)-4-(3-(trifluoromethyl)phenyl)cyclohexyl)oxy)-5-methyl-N-(pyrimidin-4-yl)pyridine-3-sulfonamide]	40.8 nM
Cc1nc(O[C@H]2CC[C@H](c3cc(C(F)(F)F)ccc3Cl)C[C@@H]2N(C)C)ccc1S(=O)(=O)Nc1ccncn1 [Example 38, 6-(((1S,2S,4S)-4-(2-chloro-5-(trifluoromethyl)phenyl)-2-(dimethylamino)cyclohexyl)oxy)-2-methyl-N-(pyrimidin-4-yl)pyridine-3-sulfonamide]	1.77 nM
CN(C)[C@H]1C[C@@H](c2cccc(C(F)(F)F)c2)CC[C@@H]1Oc1ncc(S(=O)(=O)Nc2ccncn2)cc1C(F)(F)F [Example 14, 6-(((1S,2S,4S)-2-(dimethylamino)-4-(3-(trifluoromethyl)phenyl)cyclohexyl)oxy)-N-(pyrimidin-4-yl)-5-(trifluoromethyl)pyridine-3-sulfonamide]	43.7 nM
CCc1cc(S(=O)(=O)Nc2ccncn2)cnc1O[C@H]1CC[C@H](c2cccc(C(F)(F)F)c2)C[C@@H]1N(C)C [Example 24, 6-(((1S,2S,4S)-2-(Dimethylamino)-4-(3-(trifluoromethyl)phenyl)cyclohexyl)oxy)-5-ethyl-N-(pyrimidin-4-yl)pyridine-3-sulfonamide formate]	66.4 nM
CN(C)[C@H]1C[C@@H](c2cccc(C(F)(F)F)c2)CC[C@@H]1Nc1ccc(S(=O)(=O)Nc2ccncn2)nc1 [Example 5, 5-(((1S,2S,4S)-2-(Dimethylamino)-4-(3-(trifluoromethyl)phenyl)cyclohexyl)amino)-N-(pyrimidin-4-yl)pyridine-2-sulfonamide]	66.4 nM
CN(C)[C@H]1C[C@@H](c2ccc(Cl)c(C(F)(F)F)c2)CC[C@@H]1Oc1ccc(S(=O)(=O)Nc2ccncn2)cn1 [Example 12, 6-(((1S,2S,4S)-4-(4-chloro-3-(trifluoromethyl)phenyl)-2-(dimethylamino)cyclohexyl)oxy)-N-(pyrimidin-4-yl)pyridine-3-sulfonamide formate]	1.27 nM
CN(C)[C@H]1C[C@@H](c2cccc(C(F)(F)F)c2)CC[C@@H]1Oc1ncc(S(=O)(=O)Nc2ccncn2)cc1C1CC1 [Example 7, 5-Cyclopropyl-6-(((1S,2S,4S)-2-(dimethylamino)-4-(3-(trifluoromethyl)phenyl)cyclohexyl)oxy)-N-(pyrimidin-4-yl)pyridine-3-sulfonamide formate]	4.88 nM
Cc1cc([C@H]2CC[C@H](Oc3ccc(S(=O)(=O)Nc4ccncn4)c(C)n3)[C@@H](N(C)C)C2)cc(C(F)(F)F)c1 [Example 58, 6-(((1S,2S,4S)-2-(dimethylamino)-4-(3-methyl-5-(trifluoromethyl)phenyl)cyclohexyl)oxy)-2-methyl-N-(pyrimidin-4-yl)pyridine-3-sulfonamide]	2.86 nM
CN(C)[C@H]1C[C@@H](c2cccc(C(F)(F)F)c2)CC[C@@H]1Oc1ccc(S(=O)(=O)Nc2ccncn2)c(Cl)n1 [Example 22, 2-Chloro-6-(((1S,2S,4S)-2-(dimethylamino)-4-(3-(trifluoromethyl)phenyl)cyclohexyl)oxy)-N-(pyrimidin-4-yl)pyridine-3-sulfonamide]	40 nM
